US8084575B2, “Millisecond activation switch for seven-transmembrane proteins” (Julius-Maximilians-Universitat, priority 2002, dated 2011)
Entries after “also recorded” stand apart in the source; their conditions may differ. Read-outs that look alike come from different tables or passages of the source.

How the values were obtained:
[1] = molecular target: T1, α2AAR-cam (Mus musculus, UniProt Q01338); test: [3H]UK14304 binding to membranes containing α2AAR-cam with exogenous Go protein; conditions: for Kd: read-out: Kd of agonist binding
T1 construct: expressed in transfected cells; GIRK1 and GIRK4 co-transfected in A8)
Procedure: Pharmacology. […] Saturation and competition binding studies were analysed with the program Prism to calculate KD- and Ki-values.
Third, binding of G-proteins to receptors is known to enhance formation of the active, agonist-bound state.

[2] = molecular target: T1, α2AAR-cam; test: FRET in membranes containing α2AAR-cam in the presence of Go proteins; format: biochemical
Procedure: Membrane preparation. Membrane fractions were obtained after two centrifugations at 4° C., first at 800×g for 10 min and the second at 100,000×g for 30 min. Membranes were treated with 6 M urea in 20 mM Hepes, pH 7.4, for 30 min on ice followed by centrifugation at 100,000×g for 15 min. After two washing steps at 4° C. in buffer B the membranes were resuspended in a buffer A (without BSA) and immediately used in the experiments. 20 μl aliquots of membranes were subjected to fluorescence microscopy similar to intact cells using a 20× objective.

[3] = test system: A2A receptors; test: 3H-NECA radioligand binding, adenosine receptor constructs in transiently transfected COS cells; parameters: species or system human
Procedure: FIG. 12: Pharmacological properties of the Adenosine receptor constructs. A-B) Comparison between the binding (A) and signalling properties (B) of several adenosine receptor constructs with their respective wild-type receptor in transiently transfected COS cells. Adenylylcyclases activity was determined in membranes from transiently transfected COS cells as previously published (Jakobs et al., J cyclic Nucleotide Res 2 (1976) 381-392, Klotz et al., Naunyn-Schmiedeberg's Arch Pharmacol 357 (1998) 1-9). […] Data are the mean±sd of at least 3 separate experiments.

[4] = test system: A2A-CFP14/10-YFPC33; test: Intramolecular FRET (nFRET) in HEK293 cells transfected with A2A-CFP14/10-YFPC33; format: cell-based, human
Procedure: 12 h post transfection cells were replated on glass coverslips coated with poly-L-lysine and cultured for another 12-36 h.
Cells were continuously superfused with control solution (in mM: 140 NaCl; 5.4 KCl; 2 CaCl2; 1 mM MgCl2; 10 mM Glucose and 10 HEPES/NaOH pH 7.3) using a fast solenoid valve operated superfusion system ALA-VM8 (ALA Scientific Instruments).

[5] = molecular target: T1, α2AAR-cam; format: cell-based
[6] = molecular target: T2, α2AAR (Mus musculus, UniProt Q01338); test: Competition ligand binding, wild-type α2AAR stably expressed in HEK293 cells; conditions: read-out: noradrenaline affinity Ki
T2 construct: expressed in transfected cells
T2 sequence (Q01338 with tags, fused parts or gaps): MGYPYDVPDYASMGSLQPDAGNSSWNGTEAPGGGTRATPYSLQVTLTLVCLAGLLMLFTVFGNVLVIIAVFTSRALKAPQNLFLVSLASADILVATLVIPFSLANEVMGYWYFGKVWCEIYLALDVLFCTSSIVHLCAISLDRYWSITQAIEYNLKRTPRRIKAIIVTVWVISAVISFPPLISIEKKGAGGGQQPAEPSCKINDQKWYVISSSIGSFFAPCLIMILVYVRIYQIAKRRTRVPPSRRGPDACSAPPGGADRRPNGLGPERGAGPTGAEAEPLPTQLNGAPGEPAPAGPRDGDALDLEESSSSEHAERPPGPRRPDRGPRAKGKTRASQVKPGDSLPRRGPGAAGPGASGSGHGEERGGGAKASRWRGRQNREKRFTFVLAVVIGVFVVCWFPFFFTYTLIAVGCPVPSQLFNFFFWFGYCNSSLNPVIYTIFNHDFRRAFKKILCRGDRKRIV
Procedure: (§1) Pharmacology. Ligand binding, receptor number determination, cAMP assays, measurement of α2A-adrenergic receptor-activated GIRK currents and reconstitution of receptor-Go coupling were measured as previously described (Vilardaga, (2001) loc. cit.; Bünemann, J. Bio. Chem. 276 (2001), 47512-47517; Vilardaga, J. Biol. Chem. 277 (2002), 8121-8129; Richardson, J. Biol. Chem. 274 (1999), 13525-13533). Saturation and competition binding studies were analysed with the program Prism to calculate KD- and Ki-values.

[7] = molecular target: T1, α2AAR-cam; test: Competition ligand binding, α2AAR-cam stably expressed in HEK293 cells; conditions: read-out: noradrenaline affinity Ki
Procedure: as §1

[8] = molecular target: T1, α2AAR-cam; test: FRET in neuronal PC-12 cells stably expressing α2AAR-cam, agonist versus inverse agonists; format: cell-based; conditions: 100 μM
Procedure: As documented in the appended examples, an illustrative recombinant α2A-adrenergic receptor (α2AAR-cam) was employed, whereby said α2A-adrenergic receptor (α2AAR-cam) comprises the two detectable labels YFP and CFP on the first intracellular loop and the third intracellular loop.
The α2AAR-cam receptors were stably expressed in the neuronal cell line PC-12. […] The signals were recorded before and after exposure to agonist (NA: noradrenaline, 100 μM) and two different inverse agonists (Yoh: yohimbine and Rau:rauwolscine, 100 μM).

[9] = molecular target: T3, PTHR-cam (Homo sapiens, UniProt Q03431, INS395[…]); test: FRET (ratio F*535/F*480) in single HEK293 cells expressing PTHR-cam; format: cell-based; conditions: intact HEK293 cells; PTH 1 μM, PTH(7-34) 3 μM
T3 construct: expressed in transfected cells

[10] = test system: PTHR-CFP3-loop and PTHR-YFPC-term; conditions: absence or presence of PTH 1 μM
[11] = molecular target: T1, α2AAR-cam; test: α2A-adrenergic receptor-activated whole cell GIRK currents in HEK293 cells; format: cell-based
Procedure: as §1
Electrophysiology. Whole cell GIRK currents were measured in HEK293 cells stably expressing 6 pmol/mg membrane protein α2AR-cam 20-28 h after transient transfection with GIRK1 and GIRK4 as described previously (Bünemann, (2001), loc. cit.). Membrane currents were recorded using an EPC 9 amplifier and Pulse software (HEKA Instruments) for voltage control, data acquisition and data evaluation. Experimental conditions such as patch pipettes, internal and external solutions, voltage-clamp protocol as well as the superfusion system were the same as described previously (Bünemann, (2001), loc. cit.).

Nc1nc2c(ncn2[C@@H]2O[C@H](COP(=O)(O)OP(=O)(O)OP(O)(O)=S)[C@@H](O)[C@H]2O)c(=O)[nH]1 [GTPγS]
reduction of the binding of 5 nM [3H]UK14304 ([1]; GTPγS 10 μM, Go present): more than 50% | effect on FRET signal of saturating concentrations of UK14304 ([2]; GTPγS): did not affect | reduction of FRET signals caused by 5 nM UK14304 ([2]; GTPγS 10 μM, Go present): more than 50%

Brc1c(NC2=NCCN2)ccc2nccnc12 [UK14304]
decrease of binding affinity in presence of GTPγS ([1]; 10 μM GTPγS): ≈ 3 fold | Kd ([1]; exogenous Go (receptor:Go 1:100), without GTPγS): 0.0034 ± 0.0008 µM | Kd ([1]; exogenous Go, in presence of 10 μM GTPγS): 0.0096 ± 0.0011 µM

CCNC(=O)[C@H]1O[C@@H](n2cnc3c(N)ncnc32)[C@H](O)[C@@H]1O [^3H-NECA]
radioligand binding compared with wild-type A2A receptor [3]: no significant difference

Nc1ncnc2c1ncn2[C@@H]1O[C@H](CO)[C@@H](O)[C@H]1O [adenosine]
time for nFRET to return to initial value after withdrawal of agonist [4]: 5 to 10 s

Clc1cccc(Cl)c1N=C1NCCN1 [clonidine]
FRET signal compared to the full agonist noradrenaline [5]: three-fold smaller | effect of simultaneous addition on noradrenaline response [5]: restored this response back to the partial response

NC[C@H](O)c1ccc(O)c(O)c1 [noradrenaline]
Ki [6]: 5 ± 0.8 µM | Ki [7]: 16.7 ± 1.4 µM | change of FRET signal, given alone [5]: decline of the FRET signal; also recorded: rapid decrease of the FRET signal | maximal apparent rate constant kobs [5]: ~26 s⁻¹ | time constant required for receptor activation [5]: less than 40 ms | times faster than activation of chemically labelled purified β2-adrenergic receptors [5]: more than 5000 times

Cc1ccc(N(CC2=NCCN2)c2cccc(O)c2)cc1 [phentolamine]
change of FRET signal, given alone [5]: did not alter the FRET signal | effect on the noradrenaline-induced FRET signal [5]: rapidly reverted the noradrenaline-induced signal

COC(=O)[C@H]1[C@H]2C[C@H]3c4[nH]c5ccccc5c4CCN3C[C@H]2CC[C@@H]1O [rauwolscine]
conformational change of the receptor relative to agonist noradrenaline [8]: opposite conformational changes

COC(=O)[C@@H]1[C@H]2C[C@H]3c4[nH]c5ccccc5c4CCN3C[C@@H]2CC[C@@H]1O [yohimbine]
conformational change of the receptor relative to agonist noradrenaline [8]: opposite conformational changes

PTH7-34: truncated variant of PTH, a low affinity antagonist (LMHNLGKHLNSMERVEWLRKKLQDVHNF; Parathyroid hormone; UniProt P01270 38-65, looked up, fragment)
change in FRET signal [9]: failed to induce a change in FRET

PTH: parathyroid hormone, agonist of the PTH receptor
intermolecular FRET [10]: no FRET

pertussis toxin
effect of inactivating Gi and Go on noradrenaline-induced FRET signal [5]: did not affect

α2AAR-cam: mouse α2A-adrenergic receptor with YFP in third intracellular loop and CFP on C-terminus, SEQ ID NOS: 11 and 12
speed of GIRK current activation versus wild type α2AAR [11]: not faster than the wild type
